Data: patent US10662193B2, “Carbazole and carboline compounds for use in the diagnosis, treatment, alleviation or prevention of disorders associated with amyloid or amyloid-like proteins” (AC IMMUNE SA, priority 2014, dated 2020)
Read-outs that look alike come from different tables or passages of the source.

What was measured:
Assay type in all cases: binding
[1] = tested on: Aβ plaques on AD brain section; assay: Assay 1: displacement of Compound B on human AD brain sections (fluorescence)
Protocol: Direct Binding of Compounds of this Invention to Human Alzheimer's Disease Brain Sections and/or Displacement of RefA and Compound B Frozen sections with a thickness of […] from the amygdala of donors diagnosed with Braak stage V-VI Alzheimer's Disease (Braak, H.; Braak, E. Acta Neuropathol., 1991, 82, 239-259), were purchased from a commercial provider (Tissue Solutions) and kept at -80° C. until use. Displacement of RefA and Compound B Brain sections were mainly treated as described above. Test compounds were, however, incubated on the section at 250 μM in 50% ethanol for 20 min at room temperature, and then directly incubated with the fluorescent reference compounds RefA and Compound B, each at 1 μM in 50% ethanol for 20 min at room temperature. RefA and Compound B stainings were visualized using the 470 nm and 365 nm excitation filters, respectively. Images were acquired, and tangles and plaques quantified using the NIS-Element software. Only those compounds not directly staining tangles or plaques at the same wavelengths as RefA and Compound B were tested in the displacement assay. Structure of Compound B (prepared by a similar procedure described for […] in WO2010/011964): […]

[2] = molecular target: Tau enriched paired helical filaments (PHF) from human Alzheimer's disease (AD) brains (Homo sapiens, UniProt P10636); assay: Assay 3: backscattering interferometry, dissociation constants (Kd)
From the text: Assay 3 (Backscattering Interferometry):
Determination of Dissociation Constants (Kd) of Compounds of this Invention
Enrichment of Paired Helical Filaments (PHF's) from Human Alzheimer's Disease Brains
For backscattering interferometry, Tau enriched paired helical filaments (PHF) from human Alzheimer's disease (AD) brains were used as a target. Due to the limited availability of tissues, to determine dissociation constants (Kd) of compounds of this invention to the target, two different batches of enriched PHF were used. These batches are identified as batch 6 and 7 and were prepared as follows.
PHF batch number 6 was prepared starting from 25 g frontal cortical tissue from post-mortem brains of 25 Alzheimer's disease (AD) patients which were obtained from the London Tissue Bank. The mean age at death for the AD patients was 76 years (48% females). Brain samples were characterized for Braak disease stage (Braak and Braak, 1991), with most donors displaying a stage VI. The postmortem interval between death and brain dissection was between 6 and 65 h. Human brain homogenates were prepared by SB Drug Discovery (Glasgow, Scotland, UK) from the post-mortem cortical tissue of the 25 patients). Each tissue (1 g) was homogenized with a Dounce glass homogenizer in 1.5 mL 100 mM 2-(N-morpholino) ethane-sulfonic acid (MES) pH 6.8, 0.75 M NaCl, 1 mM EGTA, 0.5 mM MgSO4, 2 mM DTT containing protease inhibitors (Complete; Roche 11697498001). For each sample, two aliquots containing 0.5 g brain homogenates in 0.75 mL were shipped to AC Immune SA on dry ice and stored at −80° C. For the enrichment of PHF, 1 aliquot per donor corresponding to total 12.5 g of brain tissue were thawed on ice and then incubated at 4° C. for 20 min to depolymerize any residual microtubules. All samples were then pooled and transferred to three polycarbonate centrifuge bottles (16×76 mm; Beckman 355603).
PHF batch number 7 was prepared starting from 32 g of parietal cortex tissue from post-mortem brain of one Alzheimer's disease (AD) patient was obtained from an external provider (Tissue Solution). The patient was a person who died for end stage AD. The brain sample was collected 5 h post-mortem and characterized for Braak disease stage (Braak and Braak, 1991) as stage VI. The method used for the PHF enrichment was modified from published procedures (Jicha et al., 1997; Rostagno and Ghiso, 2009). Around 16 g of the AD human brain was thawed on ice and homogenized with 50 ml of homogenization buffer [0.75 M NaCl in RAB buffer (100 mM 2-(N-morpholino) ethanesulfonic acid (MES), 1 mM EGTA, 0.5 mM MgSO4, 2 mM DTT, pH 6.8) supplemented with protease inhibitors (Complete; Roche 11697498001)] in a glass Dounce homogenizer. The homogenate was then incubated at 4° C. for 20 min to let depolymerize any residual microtubules, before being transferred into polycarbonate centrifuge bottles (16×76 mm; Beckman 355603). For both purifications, brain homogenates were then centrifuged at 11,000 g (12,700 RPM) in an ultracentrifuge (Beckman, XL100K) for 20 min at 4° C. using the pre-cooled 70.1 rotor (Beckman, 342184). Pellets were kept on ice. Supernatants were pooled into polycarbonate bottles and centrifuged again at 100,000 g (38,000 RPM) for 1 h at 4° C. in the 70.1 Ti rotor to isolate PHF-rich pellets, whereas soluble Tau remained in the supernatants. The pellets from the first and second centrifugations were resuspended in 120 mL of extraction buffer [10 mM Tris-HCl pH 7.4, 10% sucrose, 0.85 M NaCl, 1% protease inhibitor (Calbiochem 539131), 1 mM EGTA, 1% phosphatase inhibitor (Sigma P5726 and P0044)]. The solution was then transferred into polycarbonate centrifuge bottles (16×76 mm; Beckman 355603) and centrifuged at 15,000 g (14,800 RPM) in an ultracentrifuge (Beckman, XL100K) for 20 min at 4° C. using the 70.1 Ti rotor. […]

[3] = tested on: tau tangles/Aβ plaques on AD brain sections; assay: Assay 1: direct staining of human Alzheimer's disease brain sections (fluorescence); set-up: key to Direct staining of tau tangles/Aβ plaques on AD brain sections at 100 μM / Direct staining of tau tangles on AD brain sections at 100 μM / Direct staining of Aβ plaques on AD brain sections at 100 μM / Direct staining of tau tangles on AD brain sections (footnote a: at 250 μM): − (No); +++ (strong); ++ (good); + (weak); conditions: 100 μM compound
In short: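 Compounds (100 μM, 50% aqueous ethanol, 20 min, RT, dark) applied directly to fixed […] frozen amygdala sections of Braak stage V-VI Alzheimer's brains. After washing and 0.1% Sudan Black treatment against autofluorescence, sections were imaged microscopically for fluorescent staining.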

[4] = tested on: tau tangles on AD brain section; assay: Assay 1: displacement of RefA on human AD brain sections (fluorescence); conditions: for Selectivity (tau/Abeta): ratio of competition on tau tangles to competition on Aβ plaques
In short: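 Braak V-VI AD amygdala frozen sections were preincubated with test compound at 250 μM in 50% ethanol for 20 min at room temperature. Fluorescent RefA at 1 μM in 50% ethanol was then added for 20 min, imaged at 470 nm excitation, and tangles were quantified.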

[5] = tested on: human brain slices from the frontal and/or temporal lobes of AD patients; assay: Autoradiography with 18F-labeled compounds using human brain tissue; conditions: FIG. 14; for competition with amyloid binding compound: block with an amyloid binding compound; for competition with corresponding cold compound: blocking compound 10 μM
Protocol: Autoradiography Using Human Brain Tissue
18 micron thick frozen human brain slices and 6 micron thick human FFPE brain slices from the frontal and/or temporal lobes of AD patients were examined via autoradiography. Brain sections were equilibrated for at least 1 h in 1×PBS solution prior to use in the experiment. Each brain section was covered with a solution of the F-18 labeled tracer (200 Bq/μl, 500 μl) in 1×PBS. For blocking experiments with the corresponding 19F-labeled compound, an excess of the blocking compound was mixed with the 18F-compound to yield an end concentration of 10 μM. The brain sections were allowed to incubate with the tracer solution at room temperature for 1 h, drained afterwards and placed in a slide holder. The slides were then washed sequentially with 1×PBS for 1 min; 70% EtOH in 1×PBS for 2 min; 30% EtOH in 1×PBS for 2 min; and 1×PBS for 1 min. The slides were allowed to air-dry before being placed on Fuji imaging plates for overnight exposure. The imaging plates were scanned and the signal was measured using Fuji software to produce an autoradiographic image of the brain section. Representative examples of autoradiography studies with ^18F-178, ^18F-189, ^18F-161, ^18F-95, ^18F-168, ^18F-146, ^18F-156, ^18F-159 are shown in FIGS. 9 to 12.
The specificity of the signals was confirmed by blocking with an excess of the corresponding non-radioactive compounds.

[6] = PHF batch 7 (parietal cortex, one AD patient), read-out: [Kd] on PHF batch 7
[7] = PHF batch 6 (pooled frontal cortex, 25 AD patients), read-out: [Kd] on PHF batch 6

Sequence of Tau enriched paired helical filaments (PHF) from human Alzheimer's disease (AD) brains (P10636 623-708 limits assumed): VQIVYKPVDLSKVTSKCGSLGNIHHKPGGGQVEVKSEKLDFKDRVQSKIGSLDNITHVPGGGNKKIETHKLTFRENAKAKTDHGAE

Kd [2, 6] [nM]	Kd [2, 7] [nM]	Compound	Direct staining of tau tangles on AD brain sections at 100 μM [3]	other results
	100 ± 15	Cn1c2cc[nH]c(=O)c2c2ccc(Nc3cccc(OCCF)c3)nc21 [Example 197]	+ (tangles)	
	75 ± 12	Cn1c2c(c3ccc(Nc4ccc(F)c(OCCF)c4)nc31)C(=O)NCC2 [Example 201]		Direct staining of tau tangles/Aβ plaques on AD brain sections at 100 μM ([3]; human AD brain sections, fluorescence, cell does not say tangles or plaques): −
	46 ± 9	Cn1c2c(c3ccc(Nc4cccc(OCCF)c4)nc31)C(=O)NCC2 [drawing 1063]		

Continued, molecule first:

Compound	Kd [2, 6] [nM]	Kd [2, 7] [nM]	Direct staining of tau tangles on AD brain sections at 100 μM [3]	other results
Cn1c2ccncc2c2ccc(N3CCN(CCF)CC3)nc21 [168 Step B]	160 ± 30		++ (tangles)	Competition on AD brain section Aβ plaques (1 μM Compound B vs 250 μM compound) [1]: −1%
Cn1c2ccncc2c2ccc(Nc3ccnc(F)c3)nc21 [Example 23]	11 ± 2	38 ± 6		
Cn1c2ccncc2c2ccc(Nc3cccc(F)n3)nc21 [Example 28]	400 ± 60		+ (tangles)	
Cn1c2ccncc2c2ccc(Nc3cc(F)ccn3)nc21 [Example 51]	260 ± 50		+++ (tangles)	
Cn1c2ccncc2c2ccc(Nc3cc(OCCF)ccn3)nc21 [Example 63]		20 ± 3		
Cn1c2ccncc2c2ccc(N3CC4(CC(F)C4)C3)nc21 [Example 146]	40 ± 10		++ (tangles)	Competition on AD brain section Aβ plaques (1 μM Compound B vs 250 μM compound) [1]: 0%
Cn1c2ccncc2c2ccc(N3[C@@H]4CC[C@H]3C[C@H](F)C4)nc21 [Example 147]	170 ± 40		++ (tangles)	
Cn1c2ccncc2c2ccc(N3CC4(CC(OCCOCCOCCF)C4)C3)nc21 [Example 153]		20 ± 5	++ (tangles)	
Cn1c2ccncc2c2ccc(N3CC4(CC(OCCF)C4)C3)nc21 [Example 154]	270 ± 50		++ (tangles)	
Cn1c2ccncc2c2ccc(N3CCC(OCCF)CC3)nc21 [Example 156]		26 ± 7	+ (tangles)	Competition on AD brain section Aβ plaques (1 μM Compound B vs 250 μM compound) [1]: −8%; Competition on AD brain section tau tangles (1 μM RefA vs. 250 μM compound) [4]: 72%; Selectivity (tau/Abeta) [4]: >72 fold
Cn1c2ccncc2c2ccc(N3CCC[C@@H](F)C3)nc21 [Example 159]	120 ± 20		+ (tangles)	
Cn1c2ccncc2c2ccc(N3CCC(F)CC3)nc21 [Example 161]		18 ± 3	+ (tangles)	Competition on AD brain section Aβ plaques (1 μM Compound B vs 250 μM compound) [1]: 14%; Competition on AD brain section tau tangles (1 μM RefA vs. 250 μM compound) [4]: 85%; Selectivity (tau/Abeta) [4]: ~6-fold
CN1CCc2c(c3ccc(Nc4cccc(OCCF)c4)nc3n2C)C1=O [Example 189]		16 ± 3	++ (tangles)	
Cn1c2ccncc2c2ccc(N3CCC(OCCOCC[18F])CC3)nc21 [^18F-152]				competition with amyloid binding compound [5]: no competition; competition with corresponding cold compound [5]: Competition observed
Cn1c2ccncc2c2ccc(N3CCC(OCC[18F])CC3)nc21 [^18F-156]				competition with amyloid binding compound [5]: no competition; competition with corresponding cold compound [5]: Competition observed
Cn1c2ccncc2c2ccc(N3CC[C@H]([18F])C3)nc21 [^18F-160]				competition with amyloid binding compound [5]: no competition; competition with corresponding cold compound [5]: Competition observed
Cn1c2ccncc2c2ccc(N3CCC([18F])CC3)nc21 [^18F-161]				competition with amyloid binding compound [5]: no competition; competition with corresponding cold compound [5]: Competition observed
Cn1c2ccncc2c2ccc(N3CCN(CC[18F])CC3)nc21 [^18F-168]				competition with amyloid binding compound [5]: no competition; competition with corresponding cold compound [5]: Competition observed
